Experimental data: patent publication US20200239587A1, “SENSITIZATION OF TUMORS TO THERAPIES THROUGH ENDOGLIN ANTAGONISM” (Cedars-Sinai Medical Center, priority 2016, published 2020)

Assays:
[1] = test system: MIAPACA-2; experiment: Clonogenic survival assay with radiation; assay type: cell-based, human; conditions: p53 mutant pancreatic cancer cell line
Protocol: Assays were performed on cell lines with p53 null prostate cancer cell line, FIG. 23A) PC3 and two p53 mutant pancreatic cancer cell lines, FIG. 23B) MIAPACA-2 and FIG. 23C) HPAF-II with indicated doses of radiation. Breast cancer cell lines with intact p53, FIG. 23D) MCF7 and mutant yet functional p53, FIG. 23E) MDA-MB23 were however radio-sensitized by the 1 μg/ml TRC105.

[2] = test system: 22Rv1 cells; experiment: Total cellular ATP; assay type: cell-based, human; conditions: with or without 4 Gy, 0-168 hours
Protocol: Cells were analyzed for mito-stress test by Seahorse-XF 168 hours following 4 Gy of radiation in the presence of IgG or TRC105. FIG. 26A) Basal respiration, non-mito respiration, proton leak, spare respiratory capacity, FIG. 26B) extracellular acidification rate (ECAR) and FIG. 26C) mitochondrial dependent ATP production were quantitated using Wave 2.3.0 analysis. Data are reported as mean+/−S.D. of a representative experiment (n=5) of 3 independent experiments. FIGS. 26A-26C, the first/left column depicts 0Gy+IgG, the second column depicts 0Gy+TRC105, the third column depicts 4Gy+IgG and the last/right column depicts 4Gy+TRC105. FIG. 26D) 22Rv1 cells treated with IgG, TRC105 or nicotinamide were irradiated (4 Gy). Total cellular ATP was measured 0, 24, 72, 120, and 168 hours post radiation. Within each group, the left column is IgG, middle column is TRC105 and the right column is nicotinamide. Data are reported as mean+/−S.D. of 3 independent experiments. (***p<0.001, ****p<0.0001).

[3] = test system: CW22Rv1 cells; experiment: Cell cycle analysis after irradiation; assay type: cell-based, human
Protocol: Within each group, the left column depicts G1, middle column depicts S and the right column depicts G2. […] All studies shown are 5 days after irradiation and/or 5 days of treatment with TRC105.
22Rv1 were pre-treated with 1 μg/ml TRC105 24 hours prior to irradiation with 4 Gy. FIG. 22A) γ-H2AX or p53 bp were imunolocalized at 4, 24, and 48 hours post radiation. Foci per nuclei were quantified (n=100). FIG. 22B) Comet assay was performed 30 minutes and 24 hours following irradiation. The tail moment was quantified (n=50). FIG. 22C) Cell cycle analysis was performed on 22Rv1 at 0, 4, 8, and 24 hours post radiation in the presence of IgG or TRC105 (n=3) in 3 independent experiments. (***p<0.001, ****p<0.0001).

[4] = test system: tissue recombination orthotopic xenografts of primary human CAF and Rv1; experiment: Tissue recombination orthotopic xenografts of primary human CAF and Rv1
Description: FIG. 13A) Mice were orthotopically grafted with tissue recombinants of CW22Rv1 and CAF. […] FIG. 13B) H&E staining was followed by immune-localization for phosphorylated-histoneH3 (PH-H3), TUNEL, and chromogranin A (ChromA). Scale bar represents 32 μm. The mitotic (PH-H3) and cell death (TUNEL) indexes were plotted. n>5, error bars are mean+/−SD and *p<0.05, **p<0.01, ***p<0.001, compared to control unless otherwise indicated.
Male beige/SCID mice (Envigo), 6-8 or 10-12 weeks old, were used for subrenal capsule or prostatic orthotopic grafting, respectively, as previously described (Banerjee et al., 2014, Oncogene 33, 4924-4931; Hayward et al., 2001, Cancer Res 61, 8135-8142). In accordance with institutional animal care and use committee approval, 2×10^5 CW22Rv1 cells and 6×10^5 stromal cells were suspended in 20 μL type I collagen to be grafted into the subrenal capsule of mice castrated after seven days and sacrificed 21 days after castration. […] Tumor volume was calculated using the modified ellipsoid formula volume3=π/6×(width)2×length.
Paraffin embedded tissues were sectioned (5 μm thick) were subjected to hematoxylin and eosin (H&E) staining and immunohistochemistry as previously reported (Placencio et al., 2008, Cancer research 68, 4709-4718). […] Anti-phosphorylated histone H3 (06-570, Millipore), anti-CD105 (NCL-CD105, Leica Microsystems), anti-Ki67 (ab16667, Abcam), and anti-chromogranin A (sc-13090, Santa Cruz Biotechnology), anti-SFRP1 (601-401-475S, Rockland Immunochemicals), and anti-survivin (2808, Cell Signaling) antibodies were incubated at 4° C. overnight. Secondary antibody development was performed with Dako Cytomation mouse or rabbit kits and visualized using 3,3′-diaminobenzidine tetrahydrochloride substrate. TUNEL staining was performed per manufacturer's protocol (S7100, Millipore). Slides were scanned with a Leica Biosystems Aperio AT. Up to five fields per tissue were quantitated with Fiji (ImageJ) using a custom written macro. Mitotic and death index were quantitated by taking the total number of positively-stained nuclei divided by the total number of nuclei.

[5] = test system: p53 in 22Rv1 cells; experiment: p53 status after irradiation; assay type: cell-based, human
Protocol: In search for an alternate process mediating TRC105 radiation sensitization the inventors examined changes in cell cycle. The impact of radiation on the cell cycle is well described, as causing a G2 cell cycle arrest that undergoes cell cycle redistribution. […] As SIRT1 has previously been reported to regulate p53 stability by de-acetylating p53, the inventors investigated p53 status with TRC105 treatment. 22Rv1 cells were treated with either TRC105 or 200 μM nicotinamide, an inhibitor of SIRT1 activity, prior to irradiation (4Gy). Cells were then collected at 0, 1, and 7 days post radiation to elucidate early and late p53 response. […] While loss-of-function p53 mutations are rare in prostate cancer, 90% of pancreatic cancers have p53 mutations. We therefore used two p53 mutant pancreatic cancer cell lines: HPAF-II and MIAPACA-2 to identify if TRC105 unresponsiveness to radiation was due to p53 loss of functionality.

[6] = test system: PGC1α in 22Rv1 cells; experiment: PGC1α expression and sub-cellular localization; assay type: cell-based, human; conditions: 4Gy
Protocol: FIGS. 24A-24D depict that PGC1α and mitochondrial biogenesis are regulated by BMP/CD105. 22Rv1 cells were incubated with IgG or TRC105 with or without 4 Gy irradiation. All measurements were made 72 hours post radiation. FIG. 24A) Western blot for whole cell lysate, nuclear and cytoplasmic fractions were independently analyzed for PGC1α expression. Loading controls included β-actin (whole cell), lamin B (nuclear marker), and Rho A (cytoplasm marker). FIG. 24B) Immunofluorescent localization of PGC1α was visualized with DAPI nuclear counterstain. FIG. 24C) mRNA expression of PGC1α target genes, NRF1, MTFA, and CPT1C was measured. mRNA expression was normalized to GAPDH and untreated IgG 0 Gy. FIG. 24D) Mitochondrial DNA (mtDNA) was measured from total DNA extracts and normalized to nuclear DNA and compared to untreated IgG 0 Gy. Data are reported as means+/−S.D. of 3 independent experiments. (***p<0.001, ****p<0.0001).

[7] = test system: SIRT1 expression in 22Rv1; experiment: Radiation induced SIRT1 mRNA expression; assay type: cell-based, human; conditions: 4 Gy
Protocol: (§1) FIG. 21A) C4-2B were irradiated (0, 2, 4, or 6 Gy) and SIRT1 expression measured 72 hours post irradiation. FIG. 21B) C4-2B cells were irradiated (4 Gy) and SIRT1 expression measured 0, 0.5, 4, 8, 24, 48, and 72 hours post-radiation. FIG. 21C) 22Rv1 were pre-treated with 1 μg/ml IgG or TRC105 24 hours prior to irradiation with 4 Gy and compared for relative SIRT1 mRNA expression 72 hours after to irradiation. SIRT1 mRNA was normalized to GAPDH and to 0 Gy control.
(§2) Total RNA was extracted using the RNeasy kit (Qiagen). 1 μg RNA was used for cDNA synthesis using iSCRIPT cDNA synthesis kit (1708891, Bio-Rad). Quantitative RT-PCR was performed with 5 replicates using the Step One Real-Time PCR system (Applied Biosystems). Gene mRNA expression was normalized to GAPDH. Primer sequences can be found in the Table 1. For RNA-sequencing, Ion Proton AmpliSeq Transcriptome RNA Sequencing was performed achieving an average of 3M reads. We mapped an average of 88% of the reads to the human genome with Torrent Suite version 4.4.2.

[8] = test system: SIRT1 expression in C4-2B; experiment: Radiation induced SIRT1 mRNA expression; assay type: cell-based, human; conditions: irradiated
Protocol: as §1, §2

Substance: TRC105: partially humanized monoclonal antibody that blocks BMP signaling; human-specific CD105 (endoglin) neutralizing antibody from Tracon Pharmaceuticals
- radiation sensitivity, clonogenic response [1]: neither the HPAF-II nor MIAPACA-2 cell lines treated with radiation showed a change in clonogenic response
- cellular ATP stores [2]: depleted regardless of radiation treatment
- cell cycle distribution ([3]; 4 Gy plus TRC105, 0-24 hours): G2 cell cycle arrest that did not resolve by 24 hours
- cell cycle, G2-phase ([3]; radiation combined with TRC105, 5 days): chronic up regulation of the G2-phase
- NED, chromogranin A staining ([4]; TRC105 added to ATT): reduced
- proliferation or cell death ([4]; TRC105 alone compared to control): little change in either proliferation or cell death
- tumor size ([4]; TRC105 alone, p<0.05): smaller than vehicle
- tumor volume ([4]; TRC105 in enzalutamide treated castrated mice vs vehicle or enzalutamide (p<0.01 and <0.05)): significant reduction in tumor volume
- tumor size ([4]; TRC105 treatment in castrated mice): reduced tumor size
- proliferation (phosphorylated-histone H3) ([4]; castration, enzalutamide and TRC105 vs control or castrated enzalutamide group (p<0.05 and <0.001)): substantially reduced proliferation
- TUNEL staining ([4]; castration, enzalutamide and TRC105 vs control or enzalutamide (p<0.05)): increased TUNEL staining
- efficacy of combination of TRC105 with ADT ([4]; prostate cancer models, in vivo): superior to either one alone
- acetylated and total-p53 ([5]; by 7 days post radiation): markedly increased
- anti-apoptotic protein Bc1-2 ([5]; prior to 4Gy irradiation): decrease in the anti-apoptotic protein Bc1-2
- p21 ([5]; prior to 4Gy irradiation): increase in p21
- acetylated p53 ([5]; treatment prior to 4Gy, nicotinamide 200 μM): increase in acetylated p53
- radiation-induced nuclear translocation of PGC1α ([6]; 72 hours): prevented radiation-induced nuclear translocation of PGC1α
- PGC1α expression, whole cell lysate ([6]; IgG or TRC105, 72 hours): no effect on PGC1α expression
- radiation induced SIRT1 expression [7]: abrogated radiation induced SIRT1 expression
- radiation induced SIRT1 expression [8]: abrogated radiation induced SIRT1 expression
